Structures can show the parent of a compound that is named as a salt. Where no end group is shown, it is not given here.
What was measured:
[1] = tested on: anti-amphetamine antibodies; assay: Competitive ELISA for specificity of anti-amphetamine antibodies; format: binding; conditions: 2° sera of mice immunised with lipidated amphetamine-TH(MV); coat 5 μg per ml
[2] = tested on: anti-DNP antibodies; assay: Inhibition ELISA for specificity of anti-DNP antibodies on DNP-BSA coated plates; format: binding, BALB/c mice; conditions: for inhibition of antibody binding to DNP-BSA coated plates: inhibitor dilutions from 25 nmol/well; for inhibition of antibody binding to DNP-BSA coated plates by irrelevant inhibitors: sera not specified
Experimental: Competitive ELISA assays involved an extra step whereby ½ log dilutions of inhibitors in BSA5PBST beginning at 25 nmol/well were added to a constant limiting concentration of antibody in BSA5PBST and incubated for 2 hours on separate polyvinyl plates during the blocking step of a regular ELISA. 50 μl/well of the inhibitor and sera mixtures were then transferred to coated, blocked and washed plates and incubated overnight. Plates were then conjugated with HRP-RαM, developed, and read as per ELISA. The percentage of inhibition was determined by the following formula: […]
Inhibition ELISAs were utilised to determine whether antibody-titres detected in previous direct-binding ELISAs consisted mainly of anti-DNP antibodies. All immunogens (peptide- and protein-based) incorporated the 2,4-DNP isomer.
Sera were incubated with different amounts of various inhibitors (FIG. 14) before addition to DNP-BSA coated plates.

[3] = 2° sera of BALB/c mice immunised with DNP-BSA in CFA
[4] = 2° sera of BALB/c mice immunised with lipidated DNP-TH(MV)

Question: “amphetamine-TH(Flu): succinyl amphetamine-Lys-TH(Flu) peptide, no lipid; coating antigen and inhibitor (KALNNRFQIKGVELKS; not fully specified)” was tested. Which “inhibition of antibody binding to amphetamine-TH(ova) coated plates” value [1] did it give?
Answer: lower level of inhibition

Question: What does the source list for `O=C(O)CCCCCNc1ccc([N+](=O)[O-])cc1[N+](=O)[O-]` [2,4-DNP-ahx, 2,4-dinitrophenol-ε-amino-n-caproic acid]?
Answer: inhibition of antibody binding to DNP-BSA coated plates [2, 3]: approximately 55%; inhibition of antibody binding to DNP-BSA coated plates [2, 4]: approximately 80%

Question: For `Oc1ccccc1` [phenol], which “inhibition of antibody binding to DNP-BSA coated plates by irrelevant inhibitors” value [2] is on record?
Answer: no inhibition

Question: Which “inhibition of antibody binding to amphetamine-TH(ova) coated plates” value [1] does the source give for `CN[C@@H](C)Cc1ccccc1` [Methamphetamine hydrochloride] here?
Answer: No inhibition

Question: With `N[C@@H](Cc1ccc(O)cc1)C(=O)O` [tyrosine] as the compound, how does the “inhibition of antibody binding to DNP-BSA coated plates by irrelevant inhibitors” value [2] read?
Answer: no inhibition

Question: For `COC(=O)[C@H]1[C@@H](OC(=O)c2ccccc2)C[C@@H]2CC[C@H]1N2C` [cocaine hydrochloride], which “inhibition of antibody binding to amphetamine-TH(ova) coated plates” value [1] is on record?
Answer: No inhibition

Question: Which “inhibition of antibody binding to DNP-BSA coated plates” value [2, 3] does the source give for `O=[N+]([O-])c1ccc(O)c([N+](=O)[O-])c1` [2,4-DNP, 2,4-dinitrophenol] here?
Answer: No inhibition

Question: What about the “inhibition of antibody binding to DNP-BSA coated plates” value [2, 4] of the same compound?
Answer: 35%

Question: How did the “inhibition of antibody binding to amphetamine-TH(ova) coated plates” value [1] turn out when `C[C@H](N)Cc1ccccc1` [Amphetamine-sulfate, D-amphetamine sulfate] was run?
Answer: low level of inhibition
